Source: paper PMC5187951 (International Journal of Molecular Sciences, 2016)

What was measured:
[1] = test system: acetic acid induced writhing in mice; assay: Acetic acid induced writhing in mice; format: in vivo; details: 20 mg/kg p.o.; for No. of Writhing, Mean ± SEM: 0.6% acetic acid, counted up to 15 min; for Percentage inhibition of writhing: vs control
Experimental: Koster et al., reported method was adopted for the determination of analgesic activity of the mutual prodrugs 5a–c. The mice were divided in to five groups each group consists of five animals. […] For induction of writhings, acetic acid solution (0.6% in normal saline) was given to every mouse post 30 min of treatment. After 5 min of injection of this solution, the number of writhings was counted up to 15 min.

[2] = test system: egg albumin induced paw edema in mice; assay: Egg albumin induced inflammation (paw edema) in mice; format: in vivo; details: 20 mg/kg p.o.
Experimental: Anti-inflammatory potential of synthesized prodrugs 5a–c against egg albumin induced inflammation was also determined for further verification by following the previously reported method. The animals were divided into five groups, each group having five animals. The animals were kept on fasting for 24 h before the beginning of the experiment.

[3] = test system: yeast induced pyrexia in mice; assay: Yeast induced pyrexia in mice; format: in vivo; details: for Temperature 1 h, Mean ± SEM / Temperature 2 h, Mean ± SEM / Temperature 3 h, Mean ± SEM: 20 mg/kg p.o.; for Temperature 1 h, Mean ± SEM: 1 h after drug administration; for Temperature 2 h, Mean ± SEM: 2 h after drug administration; for Temperature 3 h, Mean ± SEM: 3 h after drug administration; for Temperature After 24 h of Induction, Mean ± SEM: rectal temperature after yeast, before drug; for Temperature before Induction, Mean ± SEM: rectal temperature, baseline before yeast
Experimental: Antipyretic activity of prodrugs 5a–c was evaluated against yeast induced pyrexia in mice according to Sakande et al., reported method. Aqueous suspension of brewer′s yeast (20% in distilled water) […] was given subcutaneous to mice. […] Only, those animals were further used in which the pyrexia had been induced. The animals were divided in to five groups having five mice in each group. […] Then animals were treated as described earlier with control, standard and prodrugs 5a–c. Rectal temperature of animals was recorded at 1, 2, 3 and 4 h after drug administration.

[4] = test system: carrageenan induced paw edema in mice; assay: Carrageenan induced paw edema in mice; format: in vivo; details: 20 mg/kg p.o.; for Inflammation at 1 h (paw thickness), Mean ± SEM / Percent inhibition of paw edema at 1 h: 1 h after carrageenan; for Percent inhibition of paw edema at 1 h / Percent inhibition of paw edema at 2 h / Percent inhibition of paw edema at 3 h / Percent inhibition of paw edema at 4 h: vs control; for Inflammation at 2 h (paw thickness), Mean ± SEM / Percent inhibition of paw edema at 2 h: 2 h after carrageenan; for Inflammation at 3 h (paw thickness), Mean ± SEM / Percent inhibition of paw edema at 3 h: 3 h after carrageenan; for Inflammation at 4 h (paw thickness), Mean ± SEM / Percent inhibition of paw edema at 4 h: 4 h after carrageenan
Experimental: Anti-inflammatory activity of mutual prodrugs 5a–c was determined by following the already reported method by slight modification against carrageenan induced paw edema in mice. The animals were distributed into 5 groups each having five mice. The mice used for the experiment were kept on fasting for 24 h before the starting of experiment. […] The paw volume was measured at 0, 1, 2, 3 and 4 h after the administration of carrageenan by using vernier caliper. (1) Percent inhibition (%) = 100 (1−X/Y) where X = mean increase in paw thickness of treated mice; and Y = mean increase in paw thickness of control mice.

[5] = test system: platelet aggregation of rat platelet rich plasma induced by ADP or collagen; assay: Ex vivo antiplatelet aggregation activity; format: in vivo, Sprague-Dawley (SD) rats; details: 100 mg/kg orally, blood 90 min after dosing, ADP 1.3 µmol/L or collagen 32.8 µg/mL; ASA 50 mg/kg positive control
Experimental: The antiplatelet activity of synthesized mutual prodrugs 5a–c was investigated by following the already reported method with some modifications. Male Sprague-Dawley (SD) rats weighing 320–350 g were used after overnight fasting. Rats were orally administered via gastric tube 100 mg/kg of prodrugs solution or 50 mg/kg of acetyl salicylic acid (ASA) suspended in 0.5% carboxymethyl cellulose (CMC) solution. Blood was collected 90 min after sample administration and platelet-rich plasma (PRP) was prepared by centrifugation of blood at 120× g for 15 min and further centrifuged at 850× g for 15 min to prepare platelet-poor plasma (PPP). Platelet aggregation was induced by 32.8 µg/mL of collagen or 1.3 µmol/L of adenosine diphosphate (ADP) in 300 µL of PRP. The PRP (300 µL) was incubated at 37 °C for 2 min in the aggregometer with stirring at 1000 rpm and then stimulated with ADP, collagen, epinephrine and A23187. The changes in light transmission were recorded for 5 min after stimulation. The synthesized mutual prodrugs 5a–c were added to the platelet suspension 3 min before the addition of the aggregating agents. The extent of inhibition of platelet aggregation is expressed as percent inhibition (X) using the following formula: (3) X=((A−B)/A)×100 where A = maximal aggregation of the control; and B = maximal aggregation of sample-treated PRP.

[6] = test system: formalin induced licking in mice; assay: Formalin induced licking in mice; format: in vivo; details: 20 mg/kg p.o.; for Lickings Time, Mean ± SEM: formalin 2.5%, observed 30 min; for Percentage inhibition of licking time: vs control
Text: Formalin induced licking in mice was also used to determine analgesic activity of prodrugs 5a–c for further verification. The animals were distributed in to five groups having five mice in each group.

[7] = test system: gastrointestinal mucosa (stomach); assay: Ulcerogenic studies, fasted rat model; format: in vivo; details: 20 mg/kg p.o., 4 h after dose, UI = area of ulcer/area of stomach × 100
Experimental: The animals were categorized into 6 groups, each has 5 animals. Group 1 was control and given 0.5% carboxymethyl cellulose (CMC) suspension. […] The prodrugs 5a–c (20 mg/kg p.o.) were given to Groups III–V, respectively. Food and water was removed from animal cages 24 h before starting the experiments. After 4 h administration of dose, the animal′s stomach was removed by sacrificing the animal. Stomach was kept on saline soaked filter paper for inspection. The stomach was opened along larger curvature and cleaned with distilled water. The mucous was removed and the area of ulcers and stomachs were noted.
Following formula was used for calculation of Ulcer index (UI); (2) UI=Area of Ulcer/Area of Stomach×100

SMILES	No. of Writhing, Mean ± SEM [1]	Percentage inhibition of writhing [1]	Temperature 1 h, Mean ± SEM [3]	Temperature 2 h, Mean ± SEM [3]	Temperature 3 h, Mean ± SEM [3]	Temperature After 24 h of Induction, Mean ± SEM [3]	Temperature before Induction, Mean ± SEM [3]	Inflammation at 1 h (paw thickness), Mean ± SEM [4]	Percent inhibition of paw edema at 1 h [4]	Inflammation at 2 h (paw thickness), Mean ± SEM [4]	Percent inhibition of paw edema at 2 h [4]	Inflammation at 3 h (paw thickness), Mean ± SEM [4]	Percent inhibition of paw edema at 3 h [4]	Inflammation at 4 h (paw thickness), Mean ± SEM [4]	Percent inhibition of paw edema at 4 h [4]	Lickings Time, Mean ± SEM [6]	Percentage inhibition of licking time [6]	also measured
CC(C)Cc1ccc([C@H](C)C(=O)OCC(=O)Oc2ccc3ccc(=O)oc3c2)cc1 [5c, (S)-((2-oxo-2H-chromen-7-yloxy)carbonyl) methyl 2-(4-isobutylphenyl) propanoate]	18.25 ± 0.85	50.94%	98.35 ± 0.05 °F	97.65 ± 0.15 °F	97.25 ± 0.08 ^ns °F	102.1 ± 0.96 °F	98.95 ± 0.04 °F	4.22 ± 0.04 mm	4.09%	4.05 ± 0.02 mm	12.14%	3.80 ± 0.04 mm	21.64%	3.60 ± 0.04 mm	28.99%	1.31 ± 0.07	53.71%	Inflammation at 0 h (paw thickness), Mean ± SEM ([2]; 0 h after egg albumin): 4.60 ± 0.33 mm; Inflammation at 1 h (paw thickness), Mean ± SEM ([2]; 1 h after egg albumin): 3.12 ± 0.06 mm; Percent inhibition of paw edema at 1 h ([2]; 1 h after egg albumin, vs control): 29.09%; Inflammation at 2 h (paw thickness), Mean ± SEM ([2]; 2 h after egg albumin): 3.02 ± 0.06 mm; Percent inhibition of paw edema at 2 h ([2]; 2 h after egg albumin, vs control): 37.08%; Inflammation at 3 h (paw thickness), Mean ± SEM ([2]; 3 h after egg albumin): 2.92 ± 0.07 mm; Percent inhibition of paw edema at 3 h ([2]; 3 h after egg albumin, vs control): 44.06%; Inflammation at 0 h (paw thickness), Mean ± SEM ([4]; 0 h after carrageenan): 4.32 ± 0.04 mm; Inhibition of platelet aggregation [5]: most potent inhibitory effects; Ulcer Index (Mean±SEM) [7]: 1.61 ± 0.58
CC(C)Cc1ccc([C@H](C)C(=O)O)cc1 [Dexibuprofen, S-(+)-ibuprofen, reference compound]	17.06 ± 1.08	54.12%	95.25 ± 0.37 ^ns °F	95.02 ± 0.35 °F	94.97 ± 0.31 °F	95.77 ± 0.26 °F	95.20 ± 0.21 °F	4.35 ± 0.06 mm	1.1%	4.07 ± 0.02 mm	11.71%	3.90 ± 0.04 mm	19.58%	3.75 ± 0.06 mm	26.03%	1.60 ± 0.22	43.46%	–
